Like-named read-outs stand apart in the source and are kept apart here.
What was measured:
[1] = 50 mg/ml, Sigma-Aldrich material; cited from earlier work
leaf discs of V. Faba = details: cited from earlier work
[2] = can rearrange to PA; cited from earlier work
stomata opening = details: 10 mcM ABA extracellular, cited from earlier work
Lemna gibba G1 = details: cited from earlier work
[3] = tested on: HELA, DU145, HCT116 AND K562; details: cited from earlier work
TCA8113 cells = details: cited from earlier work
cancer cell lines = details: HELA, DU 145, HCT115, K562, C1498, HL-60, SMMC-7721, Tca8113; cited from earlier work
[4] = tested on: C1498 transplanted tumor with myeloid leukemia; test: Survival of C57BL/6J mice with C1498 transplanted tumor (Livingston); assay type: in vivo; details: for survival: oral
From the text: For determination of cancer survival rate, she used C57BL/6J mice and C1498 transplanted tumor with myeloid leukemia purchased from the Jackson Laboratory in Maine. This type of cancer was lethal in mice in 10-15 days. ABA furnished by Hoffmann-Laroche was suspended in saline and administered as suspension. Groups of 10 mice were used for treatment for a total of 7 days.

[5] = tested on: HL-60 (promyelocytic leukemia); details: HL-60 tumor cells; cited from earlier work
DU-145 (prostate cancer) = details: DU-145 tumor cells; cited from earlier work
[6] = tested on: C1498 transplanted tumor with myeloid leukemia; details: groups of 10 mice, 7 days treatment, cited from earlier work
nuclear protein Ki67 = details: proliferating tumor cells; cited from earlier work
cancer = details: 62 human cases, digestive ABA plus six vaccines, inconclusive cases not considered; cited from earlier work

## CC1=CC(=O)CC(C)(C)C1(O)/C=C/C(C)=C\C(=O)O (racemic) [(+/−)-Abscisic acid]
[1]
  appearance of solution in ethanol: clear to slightly hazy

## CC1=CC(=O)CC(C)(C)C1(O)/C=C/C(C)=C\C(=O)O (racemic) [racemic ABA, reference compound]
Leaf discs of V. Faba
  half-life: 30 to 32 h

## CC(C=CC1(O)C(C)=CC(=O)CC1(C)CO)=CC(=O)O (centres unmarked) [Metabolite C, 6′-hydroxy methyl ABA]
[2]
  stability: extremely unstable

## [S-(Z,E)]-5-(1-Hydroxy-2,6,6-trimethyl-4-oxo-2-cyclohexen-1-yl)-3-methyl-2,4-pentadienoic acid [ABA]
Stomata opening; pH 6.15
  inhibition of stomata opening: 98%
Stomata opening; pH 8.0
  inhibition of stomata opening: 57%
Lemna gibba G1; 10-100 mcm ABA
  potential increase in average: 85 mV
Lemna gibba G1; after 15 hours ABA treatment, from −109 mV
  EPD after ABA treatment: −194 mV
[3]
  effects in four human cancer cell lines: caused a tumor growth reduction, reduced cell proliferation rate, changed cell cycle progression, and produced induction of apoptosis
TCA8113 cells; differentiation of TCA8113 affected by ABA
  Involucrin protein expression: expressed
TCA8113 cells; under treatment with ABA
  retinoic acid receptor beta (RARBETA) expression: expressed and not silenced
Cancer cell lines
  effect against cancer cell lines: severe effect
[4]; group II, 1 mg/kg
  survivors: 90%
[4]; 10 mg/kg
  survival: 60%
[4]; 100 mg/kg
  survival: 90%
[5]
  changes in morphology of cancer cells: absence of tumor cell nuclear membrane microvillus and presentation of typical apoptosis characteristics
DU-145 (prostate cancer)
  changes in morphology of cancer cells: growth in poor condition and nuclear pycnosis
Leaf discs of V. Faba
  half-life: 6 to 8 h
[6]; ABA 1 mg/kg i.p.
  rate of survival at the end of 14 days: 9 survivors
[6]; ABA 10 mg/kg i.p.
  rate of survival at the end of 14 days: 10 survivors
[6]; ABA 10 mg/kg oral
  rate of survival at the end of 14 days: 6 survivors
[6]; ABA 100 mg/kg oral
  rate of survival at the end of 14 days: 9 survivors
Nuclear protein Ki67
  nuclear protein Ki67 expression: reduced
cancer
  success rate: around 82%

From patent US20140205660A1, “Abscisic acid against cancer” (priority 2013, published 2014)
